Active and inactive are the calls of the source. The calls are words filed in the database; no cut-off is given here. Peptide text beside a SMILES is read from it. * marks the point of attachment. Palmitoyl = CCCCCCCCCCCCCCCC(=O)*

For data set [1], the system named is NHDF. In words: Cytotoxicity against neonatal HDF cells assessed as reduction in cell viability incubated for 72 hrs by MTS assay. The format is toxicity, cell-based. To be noted: human.
For data set [2], the system named is NHDF. In words: Inhibition of cell invasion in neonatal HDF cells assessed as decrease in number of migrated cells in acceptor chamber at 20 uM incubated for 72 hrs by Boyden chamber invasion assay. It is filed as functional, cell-based. To be noted: Homo sapiens.
Data set [3] deals with NHDF. As to the kind of experiment: Upregulation of collagen level in neonatal HDF cell lysate at 20 uM incubated for 72 hrs by Western blot analysis. The format is functional, subcellular. To be noted: Homo sapiens.
Data set [4] concerns the target T1, Neutrophil elastase (Homo sapiens) (UniProt P08246).
T1 sequence (whole entry): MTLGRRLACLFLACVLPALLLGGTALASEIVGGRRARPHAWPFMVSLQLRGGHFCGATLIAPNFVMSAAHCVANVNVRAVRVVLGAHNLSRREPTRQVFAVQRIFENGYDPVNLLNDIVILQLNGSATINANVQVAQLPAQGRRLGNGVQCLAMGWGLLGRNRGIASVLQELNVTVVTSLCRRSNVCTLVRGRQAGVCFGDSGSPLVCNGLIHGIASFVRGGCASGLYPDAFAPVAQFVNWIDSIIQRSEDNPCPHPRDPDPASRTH
In words: Inhibition of neutrophil elastase (unknown origin).

Data set [5] can be described thus: Stability of compound in human skin homogenate assessed as dermal protease mediated stability by measuring compound remaining measured after 24 hrs by HPLC-MS/MS analysis. It is filed as ADME, tissue-based, Skin of body. To be noted: read-out: Stability.
Data set [6] addresses Matrix metalloproteinase-9 (Homo sapiens) (UniProt P14780). As to the kind of experiment: Inhibition of MMP-9 (unknown origin).
Data set [7] is described as follows: Upregulation of procollagen level in neonatal HDF cell conditioned media at 20 uM incubated for 72 hrs by Western blot analysis relative to control. The format is functional, Homo sapiens, NHDF. Background: A western blot detects proteins with antibodies after separation by electrophoresis.
Data set [8] deals with NHDF. As to the kind of experiment: Downregulation of enzyme-digested low molecular weight collagen level in neonatal HDF cell conditioned media at 20 uM incubated for 48 hrs by Western blot analysis. It is filed as functional, cell-based. To be noted: Homo sapiens.

Chain of Matrix metalloproteinase-9 (Homo sapiens) (P14780 whole entry): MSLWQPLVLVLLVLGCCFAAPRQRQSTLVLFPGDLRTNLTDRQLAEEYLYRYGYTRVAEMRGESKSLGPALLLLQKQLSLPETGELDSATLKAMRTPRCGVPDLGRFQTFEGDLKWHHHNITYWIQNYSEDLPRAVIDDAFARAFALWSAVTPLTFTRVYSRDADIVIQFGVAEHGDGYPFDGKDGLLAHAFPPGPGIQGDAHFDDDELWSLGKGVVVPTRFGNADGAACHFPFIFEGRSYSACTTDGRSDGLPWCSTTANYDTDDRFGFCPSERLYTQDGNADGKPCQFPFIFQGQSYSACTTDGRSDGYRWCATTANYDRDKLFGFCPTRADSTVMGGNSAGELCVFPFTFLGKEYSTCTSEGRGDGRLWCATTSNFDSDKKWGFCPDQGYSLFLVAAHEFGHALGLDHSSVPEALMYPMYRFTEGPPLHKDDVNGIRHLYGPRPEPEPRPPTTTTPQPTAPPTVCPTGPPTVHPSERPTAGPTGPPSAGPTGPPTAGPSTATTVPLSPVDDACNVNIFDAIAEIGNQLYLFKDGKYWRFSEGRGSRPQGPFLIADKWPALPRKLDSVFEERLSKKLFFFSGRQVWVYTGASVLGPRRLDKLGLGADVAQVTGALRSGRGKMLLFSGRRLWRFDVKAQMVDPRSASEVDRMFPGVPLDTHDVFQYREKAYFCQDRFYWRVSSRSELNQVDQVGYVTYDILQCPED

For `CC(=O)N[C@H](CC(N)=O)C(=O)N[C@@H](C(=O)N[C@@H](C(=O)N[C@H](CCCCN)C(N)=O)C(C)C)C(C)C`, the Activity result in the data set with NHDF [1] is recorded as “Non-Toxic”. For the same molecule, the inhibition entry in the data set with NHDF [2] was “Active”. Also, the outcome in the data set with NHDF [3] was Active. Moreover, the inhibition entry in data set [4] and in data set [6] was “inactive” in each case. Also, the remaining at 24 h in data set [5] amounted to 99.6%.
Consider `CC(=O)N[C@@H](CCCCN)C(=O)N[C@H](C(=O)N[C@H](C(=O)N[C@@H](CC(N)=O)C(N)=O)C(C)C)C(C)C`, for which the Activity result with NHDF [1] was “Non-Toxic”; in data set [7], 87%. In addition, the outcome in the data set with NHDF [3] and with NHDF [8] was Active.
With `CC(=O)N[C@H](CCCCN)C(=O)N[C@@H](C(=O)N[C@@H](C(=O)N[C@H](CC(N)=O)C(N)=O)C(C)C)C(C)C`, the Activity result in the data set with NHDF [1] is “Non-Toxic”. In the data set with NHDF [3], the result was Active.
For `CSCC[C@H](NC(C)=O)C(=O)NCC(=O)N[C@@H](CCCCN)C(=O)N[C@H](C(N)=O)C(C)C` (Ac-MGKV-NH2), the Activity entry in the data set on NHDF [1] was “Non-Toxic”; in data set [7], 116%. In addition, the result in the data set on NHDF [3] and in the data set with NHDF [8] was Active.
As to `CC(=O)N1CCC[C@H]1C(=O)N[C@H](C(=O)N[C@@H](CCC(N)=O)C(=O)N[C@@H](CCCCN)C(N)=O)[C@@H](C)O` (Ac-PTQK-NH2), the Activity entry in the data set on NHDF [1] is listed as “Non-Toxic”; in data set [7] it was 31%. The result with NHDF [3] and with NHDF [8] was Active.
On to `CC(=O)N[C@H](C(=O)N[C@@H](CC(N)=O)C(=O)N1CCC[C@H]1C(=O)N[C@H](C(N)=O)[C@@H](C)O)C(C)C` (Ac-VNPT-NH2), for which the figures for the Activity entry (in the data set with NHDF [1]; in data set [7]) were “Non-Toxic” and 48%, respectively. The outcome in the data set with NHDF [3] and in the data set with NHDF [8] was Active.
Turning to `CCCCCCCCCCCCCCCC(=O)N[C@@H](CCCCN)C(=O)N[C@H](C(=O)N[C@H](C(=O)N[C@@H](CCCCN)C(=O)N[C@@H](CO)C(=O)O)[C@@H](C)O)[C@@H](C)O` (Palmitoyl-KTTKS-OH), the remaining at 24 h in data set [5] was 36%.
Consider Ac-MGKVVNPTQK-NH2, for which the result in the data set on NHDF [3] and with NHDF [8] was Active. In addition, the Activity in data set [7] came to 57%.

Source of the values: ChEMBL document CHEMBL5518222, “Retro-Inverso Collagen Modulator Peptide Derived from Serpin A1 with Enhanced Stability and Activity In Vitro” (J Med Chem, 2024).
